This note sets out measurements from patent US10590106B2, “Certain chemical entities, compositions, and methods” (NeuPharma, Inc., priority 2012, dated 2020).

One assay addresses KDR (VEGFR2) (Homo sapiens (Human), UniProt P35968). The experiment in a line: Inhibitory activity against kinase KDR, Z'-LYTE method (Invitrogen). It counts as biochemical. Particulars: for inhibition at 1 µM: 1 μM compound, read-out: Inhibition (% inhibition at 1 μM) against KDR. As for the experimental part:
Inhibitory activities of compounds against KDR (VEGFR2) were also measured by Invitrogen using Z′-LYTE® Method as described above with the following modification. The 2× KDR (VEGFR2)/Tyr 01 mixture is prepared in 50 mM HEPES pH 7.5, 0.01% BRIJ-35, 10 mM MgCl2, 1 mM EGTA. The final 10 μL Kinase Reaction consists of 0.5-11.7 ng KDR (VEGFR2) and 2 μM Tyr 01 in 50 mM HEPES pH 7.5, 0.01% BRIJ-35, 10 mM MgCl2, 1 mM EGTA. After the 1 hour Kinase Reaction incubation, 5 μL of a 1:256 dilution of Development Reagent B is added.
The scale utilized in Table 5 is as follows: +++ less than 100 nM; and ++ greater than 100 nM

The next assay has as its target BRAF V600E (Homo sapiens (Human), UniProt P15056, V600E). The experiment in a line: Inhibitory activity against kinase BRAF V600E, Z'-LYTE method (Invitrogen). Type of assay: biochemical. Conditions: for inhibition at 1 µM: 1 μM compound, read-out: Inhibition (% inhibition at 1 μM) against BRAF V600E. As for the experimental part: Inhibitory activities Inhibitory activities of compounds against BRAF, and BRAF V600E were measured by Invitrogen using Z′-LYTE® Method as briefly described in the following. 4× Test compounds are dissolved in 1% DMSO. […] ATP solutions are diluted to a 4×ATP working concentration in Kinase Buffer (50 mM HEPES pH 7.5, 0.01% BRIJ-35, 10 mM MgCl2, 1 mM EGTA). Reaction started by 30-second shaking of mixture consisting of 2.5 μL 4× test compound, […] and 2.5 μL 4×ATP Solution on Bar-coded Corning, low volume NBS, black 384-well plate (Corning Cat. #3676). Then the mixture was incubated for 60-minute at room temperature for the kinase reaction, followed by addition of 5 μL of a 1:1024 dilution of development reagent A and 30-second plate shake. The mixture was then incubated for another 60-minute at room temperature for development reaction. Fluorescence was read by plate reader. IC50 was calculated by plotting the concentration of compound vs the percentage of inhibition in treated wells using GraphPad Prism 5.
Table 2 and 3 show % inhibition at 1 μM of several compounds of the invention against BRAF and BRAF V600E, respectively, using Z′-LYTE® method.
The scale utilized in Table 4 is as follows: +++ less than 100 nM; and ++ greater than 100 nM.

The test system of the next assay is A549 cells. The experiment in a line: Inhibition of cancer cell growth, MTT or MTS assay, A549. Conditions: Homo sapiens, 72 h incubation. Type of assay: cell-based. On the procedure: (§1) Inhibition of cell growth by compounds was measured using MTT or MTS assay. Tumor cell lines were purchased from ATCC (American Type Culture Collection, Manassas, Va.). All cell lines were maintained in RPMI 1640 (Hyclone) supplemented with 10% fetal bovine serum (FBS, Hyclone), glutamine (2 mM, Hyclone), and antibiotics (penicillin 100 U/mL and streptomycin 50 μg/mL) at 37° C. in a humidified atmosphere of 5% CO2 in air. Taxol (as a positive control, Sigma) and compounds were dissolved in DMSO (Sigma), and the final concentration of DMSO in the medium was 1%. Tumor cells were plated in 96-well plates at densities of about 2000 (A375) or 4000 (A549 and Colo205) cells/well of a 96-well plate and allowed to adhere/grow for 24 h. They were then treated with various concentrations of drug and incubated for 72 h. For MTT method, medium was then removed by inverting and tapping the plates. 100 μL of MTT (0.5 mg/ml) was added to each well followed by an incubated at 37° C. for 4 h. MTT was then removed and 200 μL of DMSO was added to each well, and the ODs at 570 nm were measured after a 5 second shaking cycle in a 96-well spectrophotometer. For MTS method, 20 μL MTS (CellTiter 96 Aqueous One Solution, Promega) was added to each well followed by an incubated at 37° C. for 2-4 h, solutions were then directly put in a 96-well spectrophotometer, and the ODs at 490 nm were measured.
(§2) All concentrations of compounds were tested in triplicate and controls were averaged over 4 wells. IC50 was calculated by plotting the concentration of compound vs the percentage of inhibition in treated wells using GraphPad Prism 5. […] The scale utilized in Tables […] is as follows: +++ less than 1000 nM; ++ between 1000 nM and 5000 nM; and + greater than 5000 nM. The scale utilized in Table 8 is as follows: +++ less than 2000 nM; ++ between 2000 nM and 5000 nM; and + greater than 5000 nM.
A general note: Formazan colour is commonly taken as a measure of viable cells.

In another assay the test system is A375 cells. The experiment in a line: Inhibition of cancer cell growth, MTT or MTS assay, A375. Type of assay: cell-based. Conditions: Homo sapiens, A-375; 72 h incubation. As for the experimental part: as §1, §2

Sequence of BRAF V600E (P15056 whole entry V600E): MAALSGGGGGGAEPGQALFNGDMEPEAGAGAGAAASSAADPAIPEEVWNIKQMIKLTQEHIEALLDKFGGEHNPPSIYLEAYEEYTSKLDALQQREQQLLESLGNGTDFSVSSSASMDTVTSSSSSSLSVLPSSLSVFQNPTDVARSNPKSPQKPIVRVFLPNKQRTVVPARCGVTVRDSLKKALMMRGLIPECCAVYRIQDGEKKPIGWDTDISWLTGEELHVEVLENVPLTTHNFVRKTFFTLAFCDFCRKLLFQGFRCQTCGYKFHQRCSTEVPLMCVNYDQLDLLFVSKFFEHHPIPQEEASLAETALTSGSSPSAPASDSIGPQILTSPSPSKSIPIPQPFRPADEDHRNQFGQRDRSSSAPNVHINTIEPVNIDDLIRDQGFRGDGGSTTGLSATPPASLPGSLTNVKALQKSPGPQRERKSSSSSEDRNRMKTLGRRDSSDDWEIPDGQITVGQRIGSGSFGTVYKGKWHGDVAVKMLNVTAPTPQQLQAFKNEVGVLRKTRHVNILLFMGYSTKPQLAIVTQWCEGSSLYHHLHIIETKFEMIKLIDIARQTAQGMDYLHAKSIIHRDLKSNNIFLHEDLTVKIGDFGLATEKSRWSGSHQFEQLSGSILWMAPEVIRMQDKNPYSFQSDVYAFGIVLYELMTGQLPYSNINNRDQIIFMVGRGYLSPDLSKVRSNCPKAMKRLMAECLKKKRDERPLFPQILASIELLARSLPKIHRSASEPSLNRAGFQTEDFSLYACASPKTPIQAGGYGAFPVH
Sequence of KDR (VEGFR2) (P35968 20-1356): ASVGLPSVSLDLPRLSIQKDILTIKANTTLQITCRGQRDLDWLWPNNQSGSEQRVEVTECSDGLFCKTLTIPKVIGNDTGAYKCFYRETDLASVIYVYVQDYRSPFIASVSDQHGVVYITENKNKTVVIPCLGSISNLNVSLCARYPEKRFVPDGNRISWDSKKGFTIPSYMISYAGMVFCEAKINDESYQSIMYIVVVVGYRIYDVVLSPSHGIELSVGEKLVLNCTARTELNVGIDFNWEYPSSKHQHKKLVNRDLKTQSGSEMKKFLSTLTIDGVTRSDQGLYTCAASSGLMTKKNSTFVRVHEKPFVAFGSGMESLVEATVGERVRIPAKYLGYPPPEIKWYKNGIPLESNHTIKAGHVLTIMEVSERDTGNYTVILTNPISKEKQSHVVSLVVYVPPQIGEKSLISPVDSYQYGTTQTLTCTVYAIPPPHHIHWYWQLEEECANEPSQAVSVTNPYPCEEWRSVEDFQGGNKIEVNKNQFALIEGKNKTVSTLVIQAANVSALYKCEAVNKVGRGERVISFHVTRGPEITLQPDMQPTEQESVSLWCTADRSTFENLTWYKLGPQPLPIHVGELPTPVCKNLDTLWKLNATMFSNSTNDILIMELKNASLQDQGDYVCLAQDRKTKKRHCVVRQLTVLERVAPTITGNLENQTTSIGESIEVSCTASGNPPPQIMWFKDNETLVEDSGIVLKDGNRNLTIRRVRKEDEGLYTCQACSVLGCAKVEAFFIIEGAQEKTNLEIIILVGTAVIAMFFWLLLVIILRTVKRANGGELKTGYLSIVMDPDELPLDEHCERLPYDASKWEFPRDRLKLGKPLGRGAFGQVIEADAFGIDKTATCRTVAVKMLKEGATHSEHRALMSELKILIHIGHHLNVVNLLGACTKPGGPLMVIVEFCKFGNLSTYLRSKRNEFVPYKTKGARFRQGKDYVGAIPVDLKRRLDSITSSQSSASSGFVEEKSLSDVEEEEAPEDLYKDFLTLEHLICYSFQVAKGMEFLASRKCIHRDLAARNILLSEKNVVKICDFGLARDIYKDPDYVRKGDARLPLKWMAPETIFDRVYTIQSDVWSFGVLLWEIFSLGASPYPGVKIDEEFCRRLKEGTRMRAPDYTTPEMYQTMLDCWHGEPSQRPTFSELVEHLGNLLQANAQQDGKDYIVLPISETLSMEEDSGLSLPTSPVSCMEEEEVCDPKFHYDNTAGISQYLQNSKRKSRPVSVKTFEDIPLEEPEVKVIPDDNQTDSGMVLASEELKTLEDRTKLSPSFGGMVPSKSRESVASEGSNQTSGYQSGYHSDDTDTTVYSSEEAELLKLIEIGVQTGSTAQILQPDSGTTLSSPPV

A word on the inhibition: it is the change of the read-out against control, counted positive when it falls. `O=C(Nc1ccc(Cl)cc1)Nc1ccc(F)c(Oc2ccc3ncc(N4CCOCC4)nc3c2)c1` [Compound C057, 1-(4-chlorophenyl)-3-(4-fluoro-3-((3-morpholinoquinoxalin-6-yl)oxy)phenyl)urea]: the inhibition at 1 µM at KDR (VEGFR2) is 70 to 89%; at BRAF V600E, above 89%.
A word on the IC50: it is the point on the concentration scale where inhibition reaches its midpoint. `O=C(Nc1cccc(Cl)c1)Nc1ccc(F)c(Oc2ccc3ncc(N4CCOCC4)nc3c2)c1` [Compound C055, 1-(3-chlorophenyl)-3-(4-fluoro-3-((3-morpholinoquinoxalin-6-yl)oxy)phenyl)urea]: the inhibition at 1 µM at KDR (VEGFR2) was 70 to 89%; at BRAF V600E, above 89%. This molecule registered an IC50 with A549 cells above 5 µM.
In the case of `CCCNC(=O)Nc1cccc(Oc2ccc3nccnc3c2)c1` [Compound C071, 1-propyl-3-(3-(quinoxalin-6-yloxy)phenyl)urea], the inhibition at 1 µM on KDR (VEGFR2) and on BRAF V600E was below 70% each time. In the assay on A375 cells, this molecule had an IC50 above 5 µM.
Consider `O=C(Nc1cc(F)cc(F)c1)Nc1cccc(Oc2ccc3ncc(N4CCOCC4)nc3c2)c1` [Compound C045, 1-(3,5-difluorophenyl)-3-(3-((3-morpholinoquinoxalin-6-yl)oxy)phenyl)urea], for which the values for the inhibition at 1 µM on KDR (VEGFR2) and on BRAF V600E were below 70% and 70 to 89%, respectively. In the assay on A549 cells, this molecule gave a half-maximal inhibitory concentration (IC50) above 5 µM.
On the same counts, the results for `O=C(Nc1ccc(Cl)c(F)c1)Nc1ccc(F)c(Oc2ccc3ncc(N4CCOCC4)nc3c2)c1` [Compound C058, 1-(4-chloro-3-fluorophenyl)-3-(4-fluoro-3-((3-morpholinoquinoxalin-6-yl)oxy)phenyl)urea] are 70 to 89%, above 89% and 2 to 5 µM.
Take `O=C(Nc1ccc(Oc2ccc3nccnc3c2)cc1)c1cccc(C(F)(F)F)c1` [Compound C078, N-(4-(quinoxalin-6-yloxy)phenyl)-3-(trifluoromethyl)benzamide]: the inhibition at 1 µM at BRAF V600E was 70 to 89%. Also, the IC50 with A375 cells is above 5 µM.
On to `O=C(Nc1ccc(F)cc1)Nc1ccc(F)c(Oc2ccc3ncc(N4CCOCC4)nc3c2)c1` [Compound C053, 1-(4-fluoro-3-((3-morpholinoquinoxalin-6-yl)oxy)phenyl)-3-(4-fluorophenyl)urea], for which the inhibition at 1 µM at KDR (VEGFR2) is 70 to 89%; at BRAF V600E it was above 89%. For the same molecule, the IC50 with A375 cells fell in the range of 1 to 5 µM.
Take `O=C(Nc1ccc(Cl)cc1)Nc1ccc(Oc2ccc3ncc(N4CCOCC4)nc3c2)cc1` [Compound C085, 1-(4-chlorophenyl)-3-(4-((3-morpholinoquinoxalin-6-yl)oxy)phenyl)urea]: the inhibition at 1 µM at BRAF V600E lay in the range of 70 to 89%.
`O=C(Nc1ccc(F)c(Oc2ccc3nccnc3c2)c1)c1cccc(F)c1` [Compound C017, 3-fluoro-N-(4-fluoro-3-(quinoxalin-6-yloxy)phenyl)benzamide]: the inhibition at 1 µM on BRAF V600E fell in the range of 70 to 89%. The IC50 in the assay with A375 cells is above 5 µM.
As to `O=C(Nc1ccc(Oc2ccc3ncc(O)nc3c2)cc1)Nc1ccc(Cl)c(C(F)(F)F)c1` [Compound C103, 1-(4-chloro-3-(trifluoromethyl)phenyl)-3-(4-((3-hydroxyquinoxalin-6-yl)oxy)phenyl)urea], the half-maximal inhibitory concentration (IC50) with A549 cells was above 5 µM.
Consider `O=C(Nc1cccc(Cl)c1)Nc1ccc(Oc2ccc3nccnc3c2)c(F)c1` [Compound C101, 1-(3-chlorophenyl)-3-(3-fluoro-4-(quinoxalin-6-yloxy)phenyl)urea], for which the inhibition at 1 µM at BRAF V600E lay within 70 to 89%. Further, in the assay with A375 cells, the concentration for half-maximal inhibition (IC50) was below 1 µM.
In the case of `O=C(Nc1ccc(Cl)cc1)Nc1ccc(Oc2ccc3nccnc3c2)c(F)c1` [Compound C102, 1-(4-chlorophenyl)-3-(3-fluoro-4-(quinoxalin-6-yloxy)phenyl)urea], the inhibition at 1 µM at BRAF V600E lay within 70 to 89%.
Turning to `O=C(Nc1cccc(Oc2ccc3nccnc3c2)c1)c1cccc(F)c1` [Compound C004, 3-fluoro-N-(3-(quinoxalin-6-yloxy)phenyl)benzamide], the inhibition at 1 µM was below 70% on KDR (VEGFR2) and 70 to 89% on BRAF V600E. Also, the IC50 in the assay on A375 cells is above 5 µM.
The like results for `O=C(Nc1ccc(Oc2ccc3ncc(N4CCOCC4)nc3c2)cc1)Nc1ccc(C(F)(F)F)cc1` [Compound C083, 1-(4-((3-morpholinoquinoxalin-6-yl)oxy)phenyl)-3-(4-(trifluoromethyl)phenyl)urea] were, in that order, 70 to 89%, 70 to 89% and above 5 µM.
Turning to `COc1ccc(NC(=O)Nc2cccc(Oc3ccc4nccnc4c3)c2)cc1` [Compound C069, 1-(4-methoxyphenyl)-3-(3-(quinoxalin-6-yloxy)phenyl)urea], the 50% inhibitory concentration (IC50) against KDR (VEGFR2) and on BRAF V600E was below 0.1 µM throughout.
Take `O=C(Nc1ccc(F)c(Cl)c1)Nc1ccc(F)c(Oc2ccc3ncc(N4CCOCC4)nc3c2)c1` [Compound C056, 1-(3-chloro-4-fluorophenyl)-3-(4-fluoro-3-((3-morpholinoquinoxalin-6-yl)oxy)phenyl)urea]: the values for the inhibition at 1 µM on KDR (VEGFR2) and at BRAF V600E were 70 to 89% and above 89%, respectively. In the assay on A549 cells, the half-maximal inhibitory concentration (IC50) was above 5 µM.
In the case of `O=C(Nc1ccc(Oc2ccc3nccnc3c2)cc1F)c1cncc(C(F)(F)F)c1` [Compound C099, N-(2-fluoro-4-(quinoxalin-6-yloxy)phenyl)-5-(trifluoromethyl)nicotinamide], the inhibition at 1 µM at BRAF V600E is below 70%. Also, the IC50 in the assay on A375 cells was above 5 µM.
Take `O=C(Nc1cccc(Oc2ccc3nccnc3c2)c1)NC1CC1` [Compound C072, 1-cyclopropyl-3-(3-(quinoxalin-6-yloxy)phenyl)urea]: in the assay with A375 cells, the IC50 was above 5 µM.
As for `O=C(Nc1cccc(F)c1)Nc1cccc(Oc2ccc3ncc(N4CCNCC4)nc3c2)c1` [Compound C037, 1-(3-fluorophenyl)-3-(3-((3-(piperazin-1-yl)quinoxalin-6-yl)oxy)phenyl)urea], the inhibition at 1 µM at KDR (VEGFR2) is 70 to 89%; at BRAF V600E, above 89%. This molecule came in with an IC50 in the assay on A549 cells above 5 µM.
On to `CCCS(=O)(=O)Nc1cc(F)cc(Oc2ccc3ncc(N4CCOCC4)nc3c2)c1` [Compound C030, N-(3-fluoro-5-((3-morpholinoquinoxalin-6-yl)oxy)phenyl)propane-1-sulfonamide], for which, in the assay with A375 cells, the concentration for half-maximal inhibition (IC50) is above 5 µM.
With `O=C(Nc1ccc(Oc2ccc3nccnc3c2)cc1F)c1ccnc(C(F)(F)F)c1` [Compound C100, N-(2-fluoro-4-(quinoxalin-6-yloxy)phenyl)-2-(trifluoromethyl)isonicotinamide], at BRAF V600E, the inhibition at 1 µM is below 70%. The molecule further displayed an IC50 with A375 cells above 5 µM.
For `O=C(Nc1cccc(F)c1)Nc1cccc(Oc2ccc3ncc(N4CCOCC4)nc3c2)c1` [Compound C042, 1-(3-fluorophenyl)-3-(3-((3-morpholinoquinoxalin-6-yl)oxy)phenyl)urea], the inhibition at 1 µM is 70 to 89% on KDR (VEGFR2) and above 89% on BRAF V600E. In the assay on A549 cells, this molecule came in with an IC50 above 5 µM.
Regarding `CCCS(=O)(=O)Nc1cc(F)cc(Oc2ccc3nccnc3c2)c1` [Compound C019, N-(3-fluoro-5-(quinoxalin-6-yloxy)phenyl)propane-1-sulfonamide], the inhibition at 1 µM on BRAF V600E is below 70%. The molecule also registered an IC50 in the assay with A375 cells of 1 to 5 µM.
